{
  "source": "patent US20200113901A1",
  "about": "“METHODS OF USING EHMT2 INHIBITORS” (Epizyme, Inc., priority 2017, published 2020)",
  "key": {"[1]": {"test_system": "H3K9me2 (H3 di methyl K9)", "assay": "H3K9me2 western blot in Prader Willi Syndrome patient fibroblast cell lines", "type": "cell-based, human", "conditions": "PWS patient fibroblast cell lines GM21889 and GM21890; 0.25 μM, 1 μM, 5 μM; 7 days; western blot densitometry; FIG. 1", "description": "(§1) Fibroblast cell lines were obtained from Coriell Institute (GM21889 and GM21890). Cells were plated in 6 well plates at 0.13 or 0.26 e6 cells per well. Cells were treated for 7 days with 0, 0.25 μM, 1 μM, or 5 μM Compound No. 205 or 4 μM UNC0638 (positive control) with reseeding into 100 mm dishes and retreatment at day 4. On day 7 cells were lysed in 1X RIPA buffer (Millipore, #20-188) with 0.1% SDS and Protease Inhibitor Cocktail tablet (Roche, #04693159001), and sonicated on ice before being spun at 4° C. Clarified supernatant was assayed for protein concentration by BCA (Pierce, #23225). 25 μg of lysate was used for western blots. Antibodies used for Western blotting include H3 (4499; Cell Signaling) at 1:1000, H3K9me2 (ab1220; Abcam) at 1:1000, SNRPN (PA 1775; BosterBio) at 1:1000, and β-actin (ab8224; Abcam) at 1:2500. Imaging was performed using a Licor Odyssey, and changes in the target band were quantified by densitometry. Ratios between H3K9me2 and H3 were calculated and compound treated samples were normalized to controls (DMSO). Increases in SNRPN protein expression was observed upon increasing concentrations of Compound No. 205. See, e.g., FIGS. 1 and 2."}, "SNRPN protein": {"test_system": "SNRPN protein", "assay": "SNRPN protein induction (western blot) in Prader Willi Syndrome patient fibroblast cell lines", "type": "cell-based, human", "conditions": "PWS patient fibroblast cell lines GM21889 and GM21890, increasing concentrations 0.25 μM, 1 μM, 5 μM, 7 days, FIG. 2", "description": "as §1"}},
  "data": [
    {"compound": "CNc1cc(C)nc(Nc2ccc(OC)c(OCCCN3CCCC3)c2)n1", "note": "[Compound No. 205]", "values": [
      {"measurement": "H3 di methyl K9 (ratio H3K9me2 to H3, normalized to DMSO control)", "setting": "[1]", "result": "decrease"},
      {"measurement": "SNRPN protein expression", "setting": "SNRPN protein", "result": "Increases"}
    ]}
  ]
}
